Tests used:
MERTK = target: T1, MERTK (Homo sapiens, UniProt Q12866); experiment: TR-FRET kinase activity assay, MERTK; assay type: biochemical; settings: for IC50: TR-FRET activity assay, ATP at Km, 60 minutes, read-out: Mer IC50; for FLT3/Mer ratio (FLT3 IC50/Mer IC50): ratio of Mer to FLT3: FLT3 IC50/Mer IC50
T1 sequence (Q12866 21-999): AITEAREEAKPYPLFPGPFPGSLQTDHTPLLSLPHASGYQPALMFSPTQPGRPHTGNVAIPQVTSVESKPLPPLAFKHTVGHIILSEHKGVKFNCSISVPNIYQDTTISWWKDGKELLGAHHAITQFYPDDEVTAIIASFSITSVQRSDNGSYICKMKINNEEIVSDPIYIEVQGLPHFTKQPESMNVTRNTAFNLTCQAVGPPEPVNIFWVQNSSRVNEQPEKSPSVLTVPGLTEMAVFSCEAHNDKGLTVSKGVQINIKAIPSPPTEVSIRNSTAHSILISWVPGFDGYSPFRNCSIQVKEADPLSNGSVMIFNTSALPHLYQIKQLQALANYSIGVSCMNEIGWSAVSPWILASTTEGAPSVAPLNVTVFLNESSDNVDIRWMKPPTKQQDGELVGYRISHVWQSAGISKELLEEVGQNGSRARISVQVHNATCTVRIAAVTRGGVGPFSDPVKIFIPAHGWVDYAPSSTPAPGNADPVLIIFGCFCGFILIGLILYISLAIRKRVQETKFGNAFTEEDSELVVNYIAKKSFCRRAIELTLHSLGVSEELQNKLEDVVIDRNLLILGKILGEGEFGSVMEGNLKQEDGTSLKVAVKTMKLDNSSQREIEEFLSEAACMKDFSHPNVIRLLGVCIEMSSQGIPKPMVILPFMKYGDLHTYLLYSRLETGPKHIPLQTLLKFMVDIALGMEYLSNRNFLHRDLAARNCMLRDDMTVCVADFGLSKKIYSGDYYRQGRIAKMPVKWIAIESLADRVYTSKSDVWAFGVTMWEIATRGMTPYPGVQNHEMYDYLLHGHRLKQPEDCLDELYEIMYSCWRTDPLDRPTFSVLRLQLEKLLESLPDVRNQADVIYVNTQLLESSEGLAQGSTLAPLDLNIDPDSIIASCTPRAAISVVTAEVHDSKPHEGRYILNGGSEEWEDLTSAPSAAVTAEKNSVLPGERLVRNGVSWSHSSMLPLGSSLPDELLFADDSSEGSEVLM
Protocol: (§1) IC50 values for compound inhibition of AXL, FLT3, MERTK and TYRO3 activity were determined by using a TR-FRET activity assay. A polypeptide substrate with a fluorescent label is phosphorylated on a tyrosine by each enzyme, where the now phosphorylated product is bound by a Europium-labeled antibody specific to that phosphorylation site. The proximity between the antibody and the substrate gives a signal known as TR-FRET. As the enzyme is inhibited by compound, less phosphorylated peptide product is made causing a decrease in overall signal.
(§2) Activity assays were performed in a 384-well, small volume, black microplates in an active enzyme volume of 10 μL and final developed volume of 20 μL. Final assay conditions are 50 mM HEPES pH 7.5, 10 mM MgCl2, 1 mM EGTA, 0.01% Brij 35 and 1 mM DTT all at RT. Enzyme, substrate labeled peptide and compound are mixed, and then the reaction is initiated with the addition of ATP at Km concentration for each enzyme. The reaction is allowed to run 60 minutes and then quenched with a 12.5 mM EDTA (ethylenediamine tetraacetic acid) solution. The plate is then developed with the addition of Europium labeled antibody for a final volume of 20 μL and is then incubated for 30 minutes in darkness. Plates are read in a Pherastar plate reader. Data is analyzed in GraphPad PRISM.
(§3) The results of these assays are shown in Table 1, below, wherein “No.” designates compound number (FIG. 1); “A” represents a value of ≤100 nM; “B” a value of >100 nM and ≤1 μM; “C” a value of >1 μM and ≤10 μM; “D” a value of >10 μM; “ND” is not determined. The ratio of Mer to FLT3 is calculated as follows: FLT3 IC50/Mer IC50. “+” represents a ratio of >2.0 and <10; “++” represents a ratio of between 10 and 100; and “+++” represents a ratio of >100.

TYRO3 = target: T2, TYRO3 (Homo sapiens, UniProt Q06418); experiment: TR-FRET kinase activity assay, TYRO3; assay type: biochemical; settings: ATP at Km, 60 minutes
T2 sequence (Q06418 41-890): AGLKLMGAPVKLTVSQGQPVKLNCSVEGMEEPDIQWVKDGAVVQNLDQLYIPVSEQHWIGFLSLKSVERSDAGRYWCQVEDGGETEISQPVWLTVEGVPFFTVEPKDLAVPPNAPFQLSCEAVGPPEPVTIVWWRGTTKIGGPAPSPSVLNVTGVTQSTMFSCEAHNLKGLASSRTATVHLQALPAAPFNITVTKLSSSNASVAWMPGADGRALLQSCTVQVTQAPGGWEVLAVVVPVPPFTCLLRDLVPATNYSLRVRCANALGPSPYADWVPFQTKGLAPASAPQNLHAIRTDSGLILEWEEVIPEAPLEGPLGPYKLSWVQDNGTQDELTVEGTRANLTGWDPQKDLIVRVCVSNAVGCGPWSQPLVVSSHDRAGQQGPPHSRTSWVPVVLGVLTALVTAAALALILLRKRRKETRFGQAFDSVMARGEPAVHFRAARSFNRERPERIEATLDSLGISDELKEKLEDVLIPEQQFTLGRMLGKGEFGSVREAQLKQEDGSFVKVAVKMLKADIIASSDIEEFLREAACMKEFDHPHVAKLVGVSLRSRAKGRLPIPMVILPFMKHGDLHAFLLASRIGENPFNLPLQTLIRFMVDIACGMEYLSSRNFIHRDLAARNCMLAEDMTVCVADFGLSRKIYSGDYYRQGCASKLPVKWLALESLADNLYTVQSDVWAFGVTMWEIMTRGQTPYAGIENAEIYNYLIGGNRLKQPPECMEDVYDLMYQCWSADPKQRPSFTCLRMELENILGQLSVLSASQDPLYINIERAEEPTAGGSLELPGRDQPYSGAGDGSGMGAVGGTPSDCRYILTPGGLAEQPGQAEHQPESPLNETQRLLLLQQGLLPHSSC
Protocol: as §1, §2, §3

| SMILES | IC50 (MERTK) [nM] | FLT3/Mer ratio (FLT3 IC50/Mer IC50) (MERTK) | IC50 (TYRO3) [nM] |
| --- | --- | --- | --- |
| COC[C@H](C)Nc1ncc2c(-c3cnn(Cc4cccnc4)c3)cc([C@H]3CC[C@H](O)CC3)n2n1 [Compound 220] | ≤ 100 | +++ (“+++” represents a ratio of >100) | ≤ 100 |
| COC[C@H](C)Nc1ncc2c(-c3ccc(C(=O)N4CCOCC4)nc3)cc([C@H]3CC[C@H](O)CC3)n2n1 [Compound 227] | ≤ 100 | +++ (“+++” represents a ratio of >100) | ≤ 100 |
| COC[C@H](C)Nc1ncc2c(-c3ccc4c(c3)CC(=O)N4)cc([C@H]3CC[C@H](O)CC3)n2n1 [Compound 251] | ≤ 100 | +++ (“+++” represents a ratio of >100) | ≤ 100 |
| COC[C@H](C)Nc1ncc2c(-c3cncc(C#N)c3)cc([C@H]3CC[C@H](O)CC3)n2n1 [Compound 201] | ≤ 100 | +++ (“+++” represents a ratio of >100) | ≤ 100 |
| CCCCC[C@H](C)Nc1ncc2c([C@H]3CC[C@@H](C(=O)N4CCOCC4)CC3)cc([C@H]3CC[C@H](O)CC3)n2n1 [Compound 109, ((cis)-4-(2-((S)-heptan-2-ylamino)-7-((trans)-4-hydroxycyclohexyl)pyrrolo[2,1-f][1,2,4]triazin-5-yl)cyclohexyl)(morpholino)methanone] | ≤ 100 | ++ (“++” represents a ratio of between 10 and 100) | ≤ 100 |
| COC[C@H](C)Nc1ncc2c(-c3cccc4c3CNC4=O)cc([C@H]3CC[C@H](O)CC3)n2n1 [Compound 210] | ≤ 100 | +++ (“+++” represents a ratio of >100) | ≤ 100 |
| COC[C@H](C)Nc1ncc2c(-c3cn(C)nn3)cc([C@H]3CC[C@H](O)CC3)n2n1 [Compound 250, (trans)-4-(2-(((S)-1-methoxypropan-2-yl)amino)-5-(1-methyl-1H-1,2,3-triazol-4-yl)pyrrolo[2,1-f][1,2,4]triazin-7-yl)cyclohexanol] | ≤ 100 | +++ (“+++” represents a ratio of >100) | ≤ 100 |
| COC[C@H](C)Nc1ncc2c(-c3ccc(C(=O)N4CCN(C)CC4)nc3)cc([C@H]3CC[C@H](O)CC3)n2n1 [Compound 226] | ≤ 100 | +++ (“+++” represents a ratio of >100) | ≤ 100 |
| COCC(C)Nc1ncc2c(-c3cccc(CN4CCC(F)C4)c3)cc(C3CCC(O)CC3)n2n1 (stereo not drawn) [Compound 225] | ≤ 100 | +++ (“+++” represents a ratio of >100) | ≤ 100 |
| COCCn1cc(-c2cc([C@H]3CC[C@H](O)CC3)n3nc(N[C@@H](C)COC)ncc23)cn1 [Compound 209] | ≤ 100 | +++ (“+++” represents a ratio of >100) | ≤ 100 |
| Cc1cc(-c2cc([C@H]3CC[C@H](O)CC3)n3nc(N[C@@H](C)CC(F)(F)F)ncc23)cnn1 [Compound 268] | ≤ 100 | +++ (“+++” represents a ratio of >100) | ≤ 100 |
| C[C@@H](CC1CC1)Nc1ncc2c(-c3ccc(CN4CCN(C)CC4)cc3)cc([C@H]3CC[C@H](O)CC3)n2n1 [Compound 216] | ≤ 100 | ++ (“++” represents a ratio of between 10 and 100) | ≤ 100 |
| COC[C@H](C)Nc1ncc2c(-c3cnn(C(C)(C)CO)c3)cc([C@H]3CC[C@H](O)CC3)n2n1 [Compound 265] | ≤ 100 | +++ (“+++” represents a ratio of >100) | ≤ 100 |
| COC[C@H](C)Nc1ncc2c(-c3cncc(C(N)=O)c3)cc([C@H]3CC[C@H](O)CC3)n2n1 [Compound 247] | ≤ 100 | +++ (“+++” represents a ratio of >100) | ≤ 100 |
| COC[C@H](C)Nc1ncc2c(-c3ccnc(N4CCN(C)CC4)c3)cc([C@H]3CC[C@H](O)CC3)n2n1 [Compound 256] | ≤ 100 | +++ (“+++” represents a ratio of >100) | ≤ 100 |
| COC[C@H](C)Nc1ncc2c(-c3ccc4c(c3)CNC4=O)cc([C@H]3CC[C@H](O)CC3)n2n1 [Compound 252] | ≤ 100 | +++ (“+++” represents a ratio of >100) | ≤ 100 |
| C[C@@H](COC(F)F)Nc1ncc2c(-c3cnn(C4COC4)c3)cc([C@H]3CC[C@H](O)CC3)n2n1 [Compound 270] | ≤ 100 | +++ (“+++” represents a ratio of >100) | ≤ 100 |
| Cc1cc(-c2cc([C@H]3CC[C@H](O)CC3)n3nc(N[C@@H](C)COC(C)C)ncc23)ccn1 [Compound 215] | ≤ 100 | +++ (“+++” represents a ratio of >100) | ≤ 100 |
| CNC(=O)c1ccc(-c2cc([C@H]3CC[C@H](O)CC3)n3nc(N[C@@H](C)CC(F)(F)F)ncc23)cn1 [Compound 263] | ≤ 100 | ++ (“++” represents a ratio of between 10 and 100) | ≤ 100 |
| COC[C@H](C)Nc1ncc2c(-c3cccc(CN4CCN(C)CC4)c3)cc([C@H]3CC[C@H](O)CC3)n2n1 [Compound 218] | ≤ 100 | +++ (“+++” represents a ratio of >100) | ≤ 100 |
| COC[C@H](C)Nc1ncc2c(-c3cnn(C(C)(C)C)c3)cc([C@H]3CC[C@H](O)CC3)n2n1 [Compound 206] | ≤ 100 | +++ (“+++” represents a ratio of >100) | ≤ 100 |
| CCCCC[C@H](C)Nc1ncc2c([C@H]3CC[C@H](C(=O)N4CCOCC4)CC3)cc([C@H]3CC[C@H](O)CC3)n2n1 [Compound 108] | ≤ 100 | +++ (“+++” represents a ratio of >100) | 100 to 1000 |
| COC[C@H](C)Nc1ncc2c(-c3cncc(CN4CCOCC4)c3)cc([C@H]3CC[C@H](O)CC3)n2n1 [Compound 219] | ≤ 100 | +++ (“+++” represents a ratio of >100) | ≤ 100 |

From patent publication US11040981B2, “Pyrrolotriazine compounds and methods of inhibiting TAM kinases” (Syros Pharmaceuticals, Inc., priority 2017, dated 2021)
